In patent publication US7342089B2, “Cyclic peptides for treatment for cachexia” (Palatin Technologies, Inc., priority 2002, dated 2008):
Positions of bridges follow the written chain, without caps; N, C: chain ends. Non-standard residues stand in square brackets, D forms with d. Residues, ends and D or L forms follow the SMILES beside them. 2Nal = N[C@@H](Cc1ccc2ccccc2c1)C(=O)O; d2Nal = N[C@H](Cc1ccc2ccccc2c1)C(=O)O; Nle = CCCC[C@H](N)C(=O)O

Key:
hMC5-R = target: T1, hMC5-R (Homo sapiens, UniProt P33032); test: Competitive inhibition binding assay using [I125]-NDP-α-MSH, hMC5-R; conditions: HEK-293 membranes, read-out: Ki MC5-R
T1 construct: expressed in transfected cells; host or cells: HEK-293
T1 sequence (P33032 whole entry): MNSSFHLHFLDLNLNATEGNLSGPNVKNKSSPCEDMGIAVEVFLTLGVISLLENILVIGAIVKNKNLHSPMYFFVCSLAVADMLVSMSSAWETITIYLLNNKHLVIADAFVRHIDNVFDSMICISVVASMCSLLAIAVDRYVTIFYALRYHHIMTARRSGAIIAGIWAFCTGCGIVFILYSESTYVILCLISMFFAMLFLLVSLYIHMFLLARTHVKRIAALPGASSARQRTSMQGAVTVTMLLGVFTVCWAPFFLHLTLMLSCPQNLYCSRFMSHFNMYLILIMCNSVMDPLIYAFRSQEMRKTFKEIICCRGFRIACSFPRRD

hMC4-R (HEK-293 cells) = target: T2, hMC4-R (HEK-293 cells) (Homo sapiens, UniProt P32245); test: cAMP assay for agonist/antagonist status and functional antagonism, MC4-R; format: cell-based; conditions: for agonist/antagonist status as to MC4-R: cAMP assay; for Kb: functional antagonism, Schild's analysis vs NDP-α-MSH, read-out: pA2 value as to MC4-R (converted)
T2 construct: expressed in transfected cells; host or cells: HEK-293
T2 sequence (P32245 whole entry): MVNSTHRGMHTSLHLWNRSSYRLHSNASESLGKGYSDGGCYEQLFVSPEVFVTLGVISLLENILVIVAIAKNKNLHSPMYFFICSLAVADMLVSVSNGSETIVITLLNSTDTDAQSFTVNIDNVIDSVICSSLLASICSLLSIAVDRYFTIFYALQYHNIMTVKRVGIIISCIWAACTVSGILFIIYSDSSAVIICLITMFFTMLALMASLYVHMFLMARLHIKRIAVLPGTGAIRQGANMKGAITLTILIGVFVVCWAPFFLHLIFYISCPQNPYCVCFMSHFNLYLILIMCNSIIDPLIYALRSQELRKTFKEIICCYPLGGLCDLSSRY
Experimental: Confluent HEK-293 cells over-expressing MC4-R are detached by enzyme free cell suspension buffer. […] The cells are plated in a 96 well plates at a density of 0.5×10^5 cells per well and pre-incubated for 30 minutes. The cells are then challenged with the test peptides dissolved in dimethylsulfoxide (DMSO) at a concentration range of 0.05-5000 nM in a total assay volume of 200 μL for 1 hour at 37° C. The concentration of DMSO is always held at 1% in the assay mixture. […] At the end of the incubation period the cells are disrupted by the addition of 50 μL lysis buffer from the cAMP EIA kit (Amersham). Complete rupture of the cells is ensured by pipetting the cells up and down multiple times. cAMP levels in the cell lysates are measured after appropriate dilution using the EIA kit (Amersham) method. Data analysis and EC50 values are determined by using nonlinear regression analysis with the Prism Graph-Pad software. […] Peptides with a response ratio of less than 0.1 are evaluated for antagonistic activity.
Briefly, cells are pre-incubated for 30 minutes with the test peptides at concentrations between 0.5 nM and 5000 nM. […] For Schild's analysis, the interactions are studied using at least 3 concentrations of the peptides, separated by a log unit, over a full range of the agonist (0.005-5000 nM). cAMP levels is measured in the cell lysates after appropriate dilution. Nonlinear regression analysis with the Prism Graph-Pad software is used for Schild's analysis and to obtain EC50 values. pA2 values are derived from the Schild's plot.

hMC3-R = target: T3, hMC3-R (Homo sapiens, UniProt P41968); test: Competitive inhibition binding assay using [I125]-NDP-α-MSH, hMC3-R; conditions: HEK-293 membranes, read-out: Ki MC3-R
T3 construct: expressed in transfected cells; host or cells: HEK-293
T3 sequence (P41968 whole entry): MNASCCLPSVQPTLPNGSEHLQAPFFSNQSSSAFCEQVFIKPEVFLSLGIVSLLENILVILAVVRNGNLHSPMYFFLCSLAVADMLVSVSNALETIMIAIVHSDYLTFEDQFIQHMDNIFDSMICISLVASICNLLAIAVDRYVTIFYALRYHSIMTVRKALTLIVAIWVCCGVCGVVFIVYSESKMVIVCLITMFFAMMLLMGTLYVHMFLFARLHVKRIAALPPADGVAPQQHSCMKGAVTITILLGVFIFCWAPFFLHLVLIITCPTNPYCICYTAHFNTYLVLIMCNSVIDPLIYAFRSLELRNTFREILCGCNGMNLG

rats = test: ICV feeding studies; format: in vivo, rat; conditions: lowest value of multiple tests, parentheses = decrease
Experimental: (§1) Change in food intake and body weight is evaluated for selected peptides. Rats with indwelling intracerebroventricular cannulas (ICV rats) are obtained from Hilltop Lab Animals, Inc. (Scottdale, Pa.). Animals are individually housed in conventional plexiglass hanging cages and maintained on a controlled 12 hour on/off light cycle. Water and powdered (LabDiet, 5P00 Prolab RMH 3000) or pelleted (Harlan Teklad 2018 18% Protein Rodent Diet) food is provided ad libitum. For 1 week before treatment, 24-hour food intake and body weight change is recorded to assess a baseline for the group during vehicle treatment. The rats are dosed ICV with vehicle or selected cyclic peptides (0.3-3 nmol). The changes in body weight and food intake for the 24 hour period after dosing are determined. The changes in body weight and food intake for the 48 hour and 72 hour periods after dosing are also measured to determine reversal of changes in body weight and food intake effects back to baseline levels.
A series of ICV feeding studies were conducted on rats. All animals were dosed on the first day with saline ICV, and given a pre-weighed food bowl with food weight recorded at 2 and 21 hours post-ICV injection. On day 2, animals were randomized based on the 21 hour food consumption, with animals eliminated due to low food consumption or food spills. […] Food weights were again recorded at 2, 4, 21 and 24 hours post-icv injection. In most instances, multiple different tests were conducted which each group containing between 8 and 12 members; the lowest value is shown below. Values are shown as percent increase (decrease) in aggregate food intake. “ND” means no test was conducted at that dose level.

hMC4-R = target: T4, hMC4-R (Homo sapiens, UniProt P32245); test: Competitive inhibition binding assay using [I125]-NDP-α-MSH, hMC4-R; conditions: HEK-293 membranes, read-out: Ki MC4-R
T4 construct: expressed in transfected cells; host or cells: HEK-293
T4 sequence (P32245 whole entry): as the sequence (P32245 whole entry) above

hMC3-R (HEK-293 cells) = target: T5, hMC3-R (HEK-293 cells) (Homo sapiens, UniProt P41968); test: cAMP assay for agonist/antagonist status and functional antagonism, MC3-R; format: cell-based; conditions: for Kb: read-out: pA2 value as to MC3-R (converted)
T5 construct: expressed in transfected cells; host or cells: HEK-293
T5 sequence (P41968 whole entry): as the sequence (P41968 whole entry) above
Experimental: Assay for neutral antagonist.
Experimental details are similar to the analysis for agonistic activity and are described above. Briefly, cells are pre-incubated for 30 minutes with the test peptides at concentrations between 0.5 nM and 5000 nM. […] For Schild's analysis, the interactions are studied using at least 3 concentrations of the peptides, separated by a log unit, over a full range of the agonist (0.005-5000 nM). cAMP levels is measured in the cell lysates after appropriate dilution. Nonlinear regression analysis with the Prism Graph-Pad software is used for Schild's analysis and to obtain EC50 values. pA2 values are derived from the Schild's plot.

[1] = target: T6, MC1-R (B-16 mouse melanoma cells) (Mus musculus, UniProt Q01727); test: Competitive inhibition binding assay using [I125]-NDP-α-MSH, MC1-R; conditions: B-16 mouse melanoma cell membranes
T6 sequence (Q01727 whole entry): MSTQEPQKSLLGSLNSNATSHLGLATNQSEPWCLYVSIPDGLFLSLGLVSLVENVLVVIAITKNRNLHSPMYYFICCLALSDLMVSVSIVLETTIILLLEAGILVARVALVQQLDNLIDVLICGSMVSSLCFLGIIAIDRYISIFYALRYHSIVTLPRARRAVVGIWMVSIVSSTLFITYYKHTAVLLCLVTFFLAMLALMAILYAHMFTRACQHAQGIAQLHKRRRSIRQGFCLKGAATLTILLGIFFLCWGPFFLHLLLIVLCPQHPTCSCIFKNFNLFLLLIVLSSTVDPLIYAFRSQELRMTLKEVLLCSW
Experimental: Each assay is conducted in triplicate.

[2] = target: T6, MC1-R (B-16 mouse melanoma cells); test: cAMP assay for agonist/antagonist status, MC1-R; format: cell-based; conditions: for EC50: read-out: EC50 as to MC1-R
Experimental: Cells are incubated with the test peptides in the presence or absence of α-MSH for 1 hour at 37° C. cAMP levels in the cell lysates are measured using the EIA kit (Amersham). Data analysis and EC50 values are determined using nonlinear regression analysis with Prism Graph-Pad software.
The agonist/antagonist status with respect to MC1-R, MC4-R and MC5-R of certain peptides of the invention is determined. Antagonistic activity is determined by measuring the inhibition of α-MSH-induced or NDP-α-MSH-induced cAMP levels following exposure to the peptides as in the preceding descriptions.

male Sprague-Dawley rats = test: IV food intake and body weight change; format: in vivo, rat; conditions: 1 mg/kg IV, 24 hour period (FIG. 1)
Experimental: as §1, with “peptides. Male Sprague-Dawley rats” for “peptides. Rats with indwelling intracerebroventricular cannulas (ICV rats)”, “from Taconic (Germantown, N.Y.).” for “from Hilltop Lab Animals, Inc. (Scottdale, Pa.).”, “dosed IV or IP” for “dosed ICV”, “selected” for “selected cyclic”, “peptides (0.5-3 mg/kg).” for “peptides (0.3-3 nmol).”, “to determined” for “to determine”
Briefly, male Sprague-Dawley rats (300-350 g) were individually housed in shoe box cages with a 12 hr light/dark period. Food intake and body weights were monitored for 24 hours prior to the start of the study. Rats were randomized by body weight and then dosed IV just before lights-off with the compound of Example 12 or the same volume of vehicle. A pre-weighed amount of food was provided and food intake was determined at 2, 4, 20 and 24 hours. […]

Compound	Ki (hMC5-R) [nM]	agonist/antagonist status as to MC4-R (hMC4-R (HEK-293 cells))	Kb (hMC4-R (HEK-293 cells)) [nM]	Ki (hMC3-R) [nM]	Percent Increase (Decrease) In Aggregate Food Intake After ICV Administration of Peptide Compared to Vehicle (Saline) (rats; 1 nmol) [%]	Ki (hMC4-R) [nM]	agonist/antagonist status as to MC3-R (hMC3-R (HEK-293 cells); cAMP assay)	EC50 (hMC3-R (HEK-293 cells); cAMP assay, read-out: EC50 as to MC3-R) [nM]	Ki [1] [nM]	agonist/antagonist status as to MC1-R [2]	EC50 [2] [nM]	Percent Increase (Decrease) In Aggregate Food Intake After ICV Administration of Peptide Compared to Vehicle (Saline) (rats; 0.3 nmol) [%]	Kb (hMC3-R (HEK-293 cells)) [nM]	agonist/antagonist status at MC1-R ([2]; peptide at 1 μM concentration)	cumulative food intake compared to vehicle (male Sprague-Dawley rats)
CC(=O)N[C@H]1CC(=O)NCCCC[C@@H](C(=O)O)NC(=O)[C@H](Cc2c[nH]c3ccccc23)NC(=O)[C@H](CCCNC(=N)N)NC(=O)[C@@H](Cc2ccc3ccccc3c2)NC(=O)[C@H](Cc2c[nH]cn2)NC1=O [Example 14, Ac-cyclo(-Asp-His-D-Nal 2-Arg-Trp-Lys)-OH]	191	antagonist	186	55	16	2	antagonist	1	181	agonist	4420				
CNC(=O)[C@@H]1CCCCNC(=O)C[C@H](NC(C)=O)C(=O)N[C@@H](Cc2c[nH]c3ccccc23)C(=O)N[C@H](Cc2ccc3ccccc3c2)C(=O)N[C@@H](CCCNC(=N)N)C(=O)N[C@@H](Cc2ccc3ccccc3c2)C(=O)N1 [Example 19, Ac-cyclo(-Asp-Trp-D-Nal 2-Arg-Nal 2-Lys)-NH—CH3] (Ac-DW[d2Nal]R[2Nal]K-NHMe; lactam 1-6)	6	antagonist	1.26	3	32	0.06	antagonist		643			28	8.51	inactive	
CC(=O)N[C@H]1CC(=O)NCCCC[C@@H](C(=O)O)NC(=O)[C@H](Cc2ccc3ccccc3c2)NC(=O)[C@H](CCCNC(=N)N)NC(=O)[C@@H](Cc2ccc3ccccc3c2)NC(=O)[C@H](Cc2c[nH]c3ccccc23)NC1=O [Example 16, Ac-cyclo(-Asp-Trp-D-Nal 2-Arg-Nal 2-Lys)-OH] (Ac-DW[d2Nal]R[2Nal]K-OH; lactam 1-6)	17	antagonist	3.55	10	4	0.1	antagonist		1100	partial agonist	> 1000	0			
CCNC(=O)[C@@H]1CCCCNC(=O)C[C@H](NC(C)=O)C(=O)N[C@@H](Cc2c[nH]c3ccccc23)C(=O)N[C@H](Cc2ccc3ccccc3c2)C(=O)N[C@@H](CCCNC(=N)N)C(=O)N[C@@H](Cc2ccc3ccccc3c2)C(=O)N1 [Example 17, Ac-cyclo(-Asp-Trp-D-Nal 2-Arg-Nal 2-Lys)-NH—CH2—CH3] (Ac-DW[d2Nal]R[2Nal]K-NHEt; lactam 1-6)	3	antagonist	1.74	1	20	0.03	antagonist		194	partial agonist	> 1000	32	9.12		
CC(=O)N[C@H]1CC(=O)NCCCC[C@@H](C(=O)N(C)C)NC(=O)[C@H](Cc2ccc3ccccc3c2)NC(=O)[C@H](CCCNC(=N)N)NC(=O)[C@@H](Cc2ccc3ccccc3c2)NC(=O)[C@H](Cc2c[nH]c3ccccc23)NC1=O [Example 18, Ac-cyclo(-Asp-Trp-D-Nal 2-Arg-Nal 2-Lys)-N(CH3)2] (Ac-DW[d2Nal]R[2Nal]K-NMe2; lactam 1-6)	4	antagonist	2.04	1	24	0.03	antagonist		107	inactive		24	51.3		
CCCC[C@H](NC(C)=O)C(=O)N[C@H]1CC(=O)NCCCC[C@@H](C(=O)O)NC(=O)[C@H](Cc2ccc3ccccc3c2)NC(=O)[C@H](CCCNC(=N)N)NC(=O)[C@@H](Cc2ccc3ccccc3c2)NC(=O)[C@H](Cc2c[nH]cn2)NC1=O [Example 12, Ac-Nle-cyclo(-Asp-His-D-Nal 2-Arg-Nal 2-Lys)-OH] (Ac-[Nle]DH[d2Nal]R[2Nal]K-OH; lactam 2-7)	0.2	antagonist	7.59	0.3	48	0.02	antagonist		0.2	partial agonist	5	36			increase in food intake
CCCC[C@H](NC(C)=O)C(=O)N[C@H]1CC(=O)NCCCC[C@@H](C(=O)O)NC(=O)[C@H](Cc2c[nH]c3ccccc23)NC(=O)[C@H](CCCNC(=N)N)NC(=O)[C@@H](Cc2ccc3ccccc3c2)NC(=O)[C@H](Cc2c[nH]cn2)NC1=O [Example 11, Ac-Nle-cyclo(-Asp-His-D-Nal 2-Arg-Trp-Lys)-OH]					24				3	partial agonist	57				
CCCC[C@H](NC(C)=O)C(=O)N[C@H]1CC(=O)NCCCC[C@@H](C(=O)O)NC(=O)[C@H](Cc2ccc3ccccc3c2)NC(=O)[C@H](CCCNC(=N)N)NC(=O)[C@@H](Cc2ccc3ccccc3c2)NC(=O)[C@H](Cc2c[nH]c3ccccc23)NC1=O [Example 13, Ac-Nle-cyclo(-Asp-Trp-D-Nal 2-Arg-Nal 2-Lys)-OH] (Ac-[Nle]DW[d2Nal]R[2Nal]K-OH; lactam 2-7)									119	partial agonist					
CC(=O)N[C@H]1CC(=O)NCCCC[C@@H](C(=O)O)NC(=O)[C@H](Cc2ccc3ccccc3c2)NC(=O)[C@H](CCCNC(=N)N)NC(=O)[C@@H](Cc2ccc3ccccc3c2)NC(=O)[C@H](Cc2c[nH]cn2)NC1=O [Example 15, Ac-cyclo(-Asp-His-D-Nal 2-Arg-Nal 2-Lys)-OH] (Ac-DH[d2Nal]R[2Nal]K-OH; lactam 1-6)	89	antagonist	10	6	32	2	antagonist		143	partial agonist	2150				
